How the values were obtained:
MDM2 [1] = biological target: T1, MDM2 (Homo sapiens, UniProt Q00987); assay: Biotin-oligonucleotide pull-down with recombinant proteins (MDM2); format: binding; parameters: purchased R&D Systems (MDM2); ACROBiosystems (NCL) E3-202-050 (MDM2); NUL-H5253 (NCL); details: 400 nM 5′-biotin label, 6 μg/mL NCL + 6 μg/mL MDM2
Description: 6 μg/mL recombinant human NCL and 6 μg/mL recombinant human MDM2 were mixed well and incubated at 4° C. for 7 h. Subsequently, 400 nM CRO, AS1411, or iSN04 labeled by biotin at the 5′ end was added, and the mixture was incubated at 4° C. for 6 h. Streptavidin agarose gel beads (purchased from cytiva, Cat. No.: 17511301) were added, and the mixture was further incubated at 4° C. overnight. The gel beads were washed 4 times with a TBST buffer, and an SDS-PAGE protein loading buffer (purchased from Beyotime, Cat. No.: P0015) was added. The mixture was heated to 100° C. and held for 10 min. After centrifugation, the supernatant was collected. The pull-down product was then detected by western blot assay.
Target sequence in this assay (P19338 whole entry partner): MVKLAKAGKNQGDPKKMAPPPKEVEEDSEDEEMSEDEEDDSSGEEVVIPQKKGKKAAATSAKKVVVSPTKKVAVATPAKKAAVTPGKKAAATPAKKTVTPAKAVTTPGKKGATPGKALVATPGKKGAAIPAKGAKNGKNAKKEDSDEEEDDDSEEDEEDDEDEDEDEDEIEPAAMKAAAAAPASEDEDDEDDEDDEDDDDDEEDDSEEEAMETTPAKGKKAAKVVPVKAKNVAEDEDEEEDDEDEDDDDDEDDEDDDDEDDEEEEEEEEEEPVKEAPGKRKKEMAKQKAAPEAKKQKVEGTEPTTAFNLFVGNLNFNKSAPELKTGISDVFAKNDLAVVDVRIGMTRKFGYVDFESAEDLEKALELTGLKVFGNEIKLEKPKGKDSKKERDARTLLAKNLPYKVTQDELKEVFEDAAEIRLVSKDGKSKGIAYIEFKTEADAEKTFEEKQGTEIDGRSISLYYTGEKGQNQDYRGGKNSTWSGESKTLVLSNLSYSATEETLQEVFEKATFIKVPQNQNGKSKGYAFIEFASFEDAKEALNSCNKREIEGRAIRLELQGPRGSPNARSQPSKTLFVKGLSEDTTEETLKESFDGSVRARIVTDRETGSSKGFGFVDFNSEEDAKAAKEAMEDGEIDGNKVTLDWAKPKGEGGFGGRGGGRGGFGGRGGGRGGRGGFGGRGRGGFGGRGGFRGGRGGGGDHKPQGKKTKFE
Target sequence in this assay (Q00987 whole entry): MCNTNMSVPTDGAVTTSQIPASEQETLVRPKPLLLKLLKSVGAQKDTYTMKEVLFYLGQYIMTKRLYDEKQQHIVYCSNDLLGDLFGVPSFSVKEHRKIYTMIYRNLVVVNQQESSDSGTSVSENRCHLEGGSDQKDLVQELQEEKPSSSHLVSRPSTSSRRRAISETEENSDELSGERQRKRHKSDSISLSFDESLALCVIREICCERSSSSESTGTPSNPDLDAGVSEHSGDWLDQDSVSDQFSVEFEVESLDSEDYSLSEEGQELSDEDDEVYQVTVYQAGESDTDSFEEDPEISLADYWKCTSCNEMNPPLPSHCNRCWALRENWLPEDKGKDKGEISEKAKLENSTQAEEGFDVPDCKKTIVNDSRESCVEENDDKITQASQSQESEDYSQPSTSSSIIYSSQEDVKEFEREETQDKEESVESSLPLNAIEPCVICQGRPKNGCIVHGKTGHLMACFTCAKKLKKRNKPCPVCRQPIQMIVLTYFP

[2] = test system: HeLa cervical cancer cells; assay: Binding of Cy5-labeled oligonucleotide to HeLa cells, flow cytometer; format: cell-based; details: 500 nM Cy5-labeled, 1.5 h
Description: When AS1411 was selected as the GRO, the model analysis for AS1411 as the novel recruitment element of MDM2 and a PROTAC constructed by using AS1411 as the novel recruitment element of MDM2 was specifically as follows: Since NCL is highly expressed in tumor cells and specifically distributed on the surface of tumor cells, the binding ability of AS1411 to HeLa cervical cancer cells was examined. HeLa cells were incubated with 500 nM CRO (cytosine-rich oligonucleotide, negative control) and AS1411 labeled by Cy5 for 1.5 h. […] AS1411 is set forth in SEQ ID NO: 1, and the sequence of the CRO is set forth in SEQ ID NO: 13.

[3] = G4 structural characteristics, N-methyl mesoporphyrin IX (NMM) fluorescent probe; format: physicochemical; details: 1 μM NMM
Description: Both AS1411 and iSN04 are oligonucleotides specifically binding to NCL. The sequence of AS1411 is SEQ ID NO: 1, and the sequence of iSN04 is SEQ ID NO: 14. AS1411 contains a plurality of GGT motifs, and iSN04 contains one GGT motif. Whether AS1411 and iSN04 have stable G4 structural characteristics was determined. The experimental process was as follows: 5 μM NC (negative control, SEQ ID NO: 15), AS1411, or iSN04 was added to water, and the total volume was 100 μL. The mixture was heated at 95° C. for 7 min and then immediately incubated on ice for 3 min, followed by the addition of 2 μL of N-methyl mesoporphyrin IX (NMM) (purchased from MCE, Cat. No.: HY-133821) to make a final concentration of 1 μM. The resulting mixture was incubated at room temperature for 1 h in the dark. The fluorescence intensity was detected by a microplate reader, with an emission wavelength of 550-700 nm and an excitation wavelength of […].
Guanine-rich DNA sequences can form more distinct G4 structural characteristics in the presence of metal ions (usually sodium and potassium ions). 5 μM NC (negative control, SEQ ID NO: 15), AS1411, or iSN04 was added to a 100 mM K^+ solution, and the total volume was 100 μL. The mixture was well mixed, heated at 95° C. for 7 min, and then immediately incubated on ice for 3 min, followed by the addition of 2 μL of N-methyl mesoporphyrin IX (NMM) (purchased from MCE, Cat. No.: HY-133821) to make a final concentration of 1 μM. The resulting mixture was incubated at room temperature for 1 h in the dark. The fluorescence intensity was detected by a microplate reader, with an emission wavelength of 550-700 nm and an excitation wavelength of […].

HeLa cells = assay: Cell penetration and intracellular colocalization, confocal laser microscope; format: cell-based; details: 500 nM Cy5-labeled, 6 h
Description: HeLa cells were incubated with 500 nM Cy5-labeled CRO or AS1411 for 6 h. After the incubation was completed, immunofluorescence staining was performed on NCL and MDM2, and 4′,6-diamidino-2-phenylindole (DAPI) was used to stain nuclei. The cell penetration of the CRO or AS1411 and the intracellular colocalization of the CRO or AS1411 with NCL and MDM2 were observed under a confocal laser microscope.
HeLa cells were transfected with si-NC or si-NCL and subsequently incubated with 500 nM Cy5-labeled AS1411 for 6 h. After the incubation was completed, immunofluorescence staining was performed on MDM2, and DAPI was used to stain nuclei. The intracellular colocalization of AS1411 with MDM2 was observed by a confocal laser microscope.

MDM2 [4] = biological target: T1, MDM2; assay: Biotin-oligonucleotide pull-down from HeLa cell lysate, western blot (MDM2); format: binding; parameters: HeLa cervical cancer cells were lysed with an IP lysis solution; endogenous in cells; host or cells: HeLa; details: 5′-biotin label, 0 nM-20 μM
Description: HeLa cervical cancer cells were lysed with an IP lysis solution (purchased from Thermo Scientific, Cat. No.: 87788) and then incubated with a CRO (cytosine-rich oligonucleotide, negative control, SEQ ID NO: 13), AS1411, or iSN04 labeled by biotin at the 5′ end at different concentrations (0 nM, 200 nM, 500 nM, 1 μM, 5 μM, 10 μM, and 20 μM) at 4° C. for 6h. Subsequently, streptavidin agarose gel beads (purchased from cytiva, Cat. No.: 17511301) were added, and the mixture was further incubated at 4° C. overnight. After the bound biotin-labeled CRO, AS411, or iSN04 and its captured proteins on the gel beads were washed multiple times with an IP lysis buffer (purchased from Thermo Scientific, Cat. No.: 87788), an SDS-PAGE protein loading buffer (purchased from Beyotime, Cat. No.: P0015) was added, and the mixture was heated to 100° C. and held for 10 min. After centrifugation, the supernatant was collected as a pull-down product. The pull-down product was detected by western blot assay.
Target sequence in this assay (P19338 2-710 partner limits assumed): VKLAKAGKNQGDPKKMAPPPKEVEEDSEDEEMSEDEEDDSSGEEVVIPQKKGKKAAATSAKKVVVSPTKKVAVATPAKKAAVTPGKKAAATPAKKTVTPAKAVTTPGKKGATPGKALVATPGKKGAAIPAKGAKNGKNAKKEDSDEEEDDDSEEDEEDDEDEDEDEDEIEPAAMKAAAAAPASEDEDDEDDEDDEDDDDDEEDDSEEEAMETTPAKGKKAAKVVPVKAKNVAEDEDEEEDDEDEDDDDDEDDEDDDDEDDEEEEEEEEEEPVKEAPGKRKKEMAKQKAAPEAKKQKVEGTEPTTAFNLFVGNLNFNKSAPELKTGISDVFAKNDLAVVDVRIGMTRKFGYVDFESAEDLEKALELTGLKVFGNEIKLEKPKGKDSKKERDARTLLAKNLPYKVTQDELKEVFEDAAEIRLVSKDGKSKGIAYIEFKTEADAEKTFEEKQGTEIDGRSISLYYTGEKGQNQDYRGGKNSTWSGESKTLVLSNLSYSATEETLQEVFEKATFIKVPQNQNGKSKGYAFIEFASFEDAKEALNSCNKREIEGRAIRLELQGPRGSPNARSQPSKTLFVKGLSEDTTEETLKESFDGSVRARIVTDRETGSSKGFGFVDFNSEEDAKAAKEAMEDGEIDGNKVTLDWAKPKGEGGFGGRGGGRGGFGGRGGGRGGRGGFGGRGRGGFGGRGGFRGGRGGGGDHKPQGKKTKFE
Target sequence in this assay (Q00987 whole entry): as the sequence (Q00987 whole entry) above

[5] = phase I and phase II clinical trials; cited from earlier work

With “AS1411: DNA aptamer, GRO binding NCL, SEQ ID NO: 1: 5′-GGTGGTGGTGGTTGTGGTGGTGGTGG-3′” the “binding / recruitment of MDM2” value (MDM2 [1]) was “recruits MDM2 in large amounts depending on its interaction with NCL”, the “binding ability to HeLa cells” value [2] was “can significantly bind to HeLa cells” and the “G4 structural characteristics (fluorescence signal intensity)” value ([3]; 5 μM in 100 mM K+ solution) was “over 10000”. The “G4 structural characteristics (fluorescence signal intensity)” value ([3]; 5 μM in water (no K+)) was “over 4000”, the cell penetration (HeLa cells) was “can penetrate HeLa cells” and the “intracellular colocalization with NCL and MDM2” value (HeLa cells) was “exhibits significant colocalization with both NCL and MDM2”. For the same substance, the “cell penetration when NCL is silenced” value (HeLa cells; si-NCL) was “silencing NCL can block AS1411 from penetrating cells”, the “intracellular colocalization with MDM2 when NCL is silenced” value (HeLa cells; si-NCL) was “no observed colocalization between AS1411 and MDM2” and the “capture of MDM2” value (MDM2 [4]) was “can capture NCL and MDM2 in a concentration-dependent manner”. The “safety in clinical trials” value [5] was “good safety”.
